Laboratory results published in patent publication US20180092866A1, “SUBSTITUTED N-([1,1'-BIPHENYL]-3-YL)-[1,1'-BIPHENYL]-3-CARBOXAMIDE ANALOGS AS INHIBITORS FOR BETA-CATENIN/B-CELL LYMPHOMA 9 INTERACTIONS” (University of Utah Research Foundation, priority 2015, published 2018).
Numbering of substitutions follows the chain as printed.

How the values were obtained:
[1] = molecular target: T1, wild-type human β-catenin (residues 138-686) (Homo sapiens, UniProt P35222); assay: Isothermal titration calorimetry, wild-type β-catenin; assay type: binding; conditions: ITC, 28° C.
T1 construct: His6 (C); made in house; host or cells: E. coli BL21 DE3
T1 sequence (P35222 138-686): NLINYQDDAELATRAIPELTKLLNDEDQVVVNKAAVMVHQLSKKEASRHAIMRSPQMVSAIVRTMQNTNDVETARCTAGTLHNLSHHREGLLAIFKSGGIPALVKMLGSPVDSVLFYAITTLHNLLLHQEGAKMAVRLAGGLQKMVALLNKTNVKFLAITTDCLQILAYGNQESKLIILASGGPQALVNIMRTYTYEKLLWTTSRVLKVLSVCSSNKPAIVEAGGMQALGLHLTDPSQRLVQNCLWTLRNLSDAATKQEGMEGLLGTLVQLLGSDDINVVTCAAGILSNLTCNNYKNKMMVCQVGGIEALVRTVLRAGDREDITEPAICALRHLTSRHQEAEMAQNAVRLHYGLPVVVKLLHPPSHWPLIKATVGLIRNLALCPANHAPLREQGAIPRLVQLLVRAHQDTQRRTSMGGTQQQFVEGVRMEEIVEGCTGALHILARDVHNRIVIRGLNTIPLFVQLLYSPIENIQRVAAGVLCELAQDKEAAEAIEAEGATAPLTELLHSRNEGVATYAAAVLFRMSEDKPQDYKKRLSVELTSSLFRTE
Protocol: (§1) ITC measurements were performed at 28° C. using a VP-ITC (Microcal, GE Healthcare Life Sciences). […] The homogeneity of the purified proteins were examined by native gel electrophoresis. Each titration experiment was initiated by a 2 μL injection, and followed by 30-35 times injections with an 8 μL volume each. Blank titrations, which were carried out by injecting the compound into the buffer, were subtracted from each data set. The association constant KA, enthalpy change (ΔH), and stoichiometry N were obtained from fitting the data using the Origin software package. The dissociation constant Kd, the free energy change ΔG, and the entropy change ΔS were obtained from the basic thermodynamic equations, Kd=KA^−1, ΔG=−RTlnKA, and ΔG=ΔH−TΔS.

[2] = molecular target: T2, β-catenin L159S mutant (residues 138-686) (Homo sapiens, UniProt P35222, L159S); assay: Isothermal titration calorimetry, β-catenin L159S; assay type: binding; conditions: ITC
T2 construct: His6 (C); made in house; host or cells: E. coli BL21 DE3
T2 sequence (P35222 138-686 L159S): T1 sequence (P35222 138-686) with L22S
Text: (§2) Mutants β-catenin D145A, E155A, L156S, L159S, D145A/E155A, L156S/L159S, and L156S/L178S were generated using the overlapping PCR method. Template for the mutagenesis reactions was wide type full-length β-catenin in pET-28b. KOD hot start DNA polymerase (Novagen) was used through this experiment. Mutants were confirmed by direct sequencing (Core facility, University of Utah). Following the confirmation of the sequence, mutant β-catenin were cloned into a pET-28b vector and transformed into E. coli BL21 DE3.
as §1

[3] = system: AXIN2, LGR5, LEF1, and cyclin D1 transcription in MDA-MB-231 cells; assay: Quantitative real-time PCR, MDA-MB-231 cells; assay type: cell-based, human; conditions: 2 and 4 μM
Protocol: SW480 and MDA-MB-231 cells at 1×10^6/mL were treated with different concentrations of 21 for 24 h. Total RNAs were extracted with TRIzol ([…], Life Technologies), and the cDNA was synthesized with the superscript III first-strand kit (18080-051, Invitrogen). Quantitative PCR (qPCR) was performed using the iQ™ SYBR green supermix kit (170-8880, BIO-RAD) on an iQ^5 multicolor real-time PCR reaction system (BIO-RAD). The threshold cycle (CT) values were normalized to that of internal reference GAPDH. The primer pairs for human GAPDH were forward: 5′-[…]-3′, and reverse: 5′-[…]-3′, for human AXIN2 forward: 5′-[…]-3′ and reverse: 5′-[…]-3′, for human LGR5 forward: 5′-[…]-3′ and reverse: 5′-[…]-3′, for human LEF1 forward: 5′-[…]-3′ and reverse: 5′-[…] […]-3′, and for human cyclin D1 forward: 5′-[…]-3′, and revers: 5′-[…]-3′. Experiments were performed in triplicate.

[4] = molecular target: T3, β-catenin L156S/L178S mutant (residues 138-686) (Homo sapiens, UniProt P35222, L156S/L178S); assay: Isothermal titration calorimetry, β-catenin L156S/L178S; assay type: binding; conditions: ITC
T3 construct: His6 (C); made in house; host or cells: E. coli BL21 DE3
T3 sequence (P35222 138-686 L156S/L178S): T1 sequence (P35222 138-686) with L19S, L41S
Text: as §2, §1

O=C(Nc1ccc(O[C@H]2CCNC2)c(-c2ccc(F)cc2)c1)c1ccc(O[C@H]2CCNC2)c(-c2ccc(F)c(F)c2)c1 [Compound 21, (S)-3-((3′,4′-difluoro-5-((4′-fluoro-6-((S)-pyrrolidin-1-ium-3-yloxy)-[1,1′-biphenyl]-3-yl)carbamoyl)-[1,1′-biphenyl]-2-yl)oxy) pyrrolidin-1-ium chloride]
Kd [1]: 333 ± 6 nM | Kd [2]: 924 ± 33 nM | inhibition of mRNA expression [3]: More than 50% | Kd [4]: 1590 ± 45 nM
